Patent US20200400567A1, “FUSION POLYPEPTIDE” (PEKING UNIVERSITY, priority 2017, published 2020)

Columns and labels:
Type in all cases: cell-based
[1] = tested on: human ADRA2A receptor; experiment: GRAB-NE2.1 in primary cultured rat cardiomyocytes, drug perfusion; settings: GRAB-NE2.1 in cardiomyocytes, 1 μM Yohimbine
Excerpt: The GRAB-NE2.1 sensor was transfected into primary cultured rat cardiomyocytes by liposomes, and the optical signal changes for the ligand binding and affinity for ligand were detected by drug perfusion.

[2] = tested on: human ADRA2A receptor; experiment: Response kinetics of GRAB-NE2.2 by photolysis of NPEC-caged-NE; settings: GRAB-NE2.2, 10 μM Yohimbine
Procedure: 100 μM NPEC-NE was prepared in DMSO. The photo-uncaging experiment was performed on a Nikon laser scanning confocal microscope. The light stimulation was 80% of the 405 nm laser for 76 ms, and the stimulation area was 2×2 pixel rectangle (1 pixel=0.62 μm).
By caging neurotransmitters, neurotransmitters can be quickly activated and released in a certain area, and the signal of the sensor was fast scanned by a microscope to obtain the time constant for the change in fluorescence intensity after the sensor binds to the ligand. The experiment was performed in HEK293T cells using the neurotransmitter NPEC caged NE (i.e., NPEC-NE) (FIG. 29a), 405 nm laser for activating NPEC-caged NE, and GRAB-NE2.2.

[3] = tested on: human ADRA2A receptor; experiment: GRAB-NE2.1 in cultured rat cortical neurons, drug perfusion; settings: GRAB-NE2.1 in neurons
Procedure: Newborn Sprague-Dawley rats were used for the primary culture of rat neurons. After the skin was washed with alcohol, the head of newborn rat was dissected with surgical instruments, and the vascular membrane on the surface of the cortex was carefully removed after removing the brain. The cortical tissue was cut into pieces and placed in a 0.25% trypsin solution, and digested for 10 minutes in an incubator at 37° C. The digestion was terminated with a DMEM medium containing 5% FBS, and the cells were further isolated by slowly pipetting up and down ten times with a pipette. After standing for 5 minutes, the pellet containing the tissue debris was discarded and the upper layer solution was collected and centrifuged at 1000 rpm for 5 minutes in a centrifuge. Thereafter, the supernatant was discarded and the neurons were resuspended with the Neurobasal+B27 medium used for culturing the neurons. The density was calculated using a cell counting chamber. After that, the cells were diluted at a density of 0.5-1×10^6 cells/ml and plated on the slides coated with poly-lysine (Sigma). Primary neurons were cultured in the Neurobasal+B27 medium, and a half of the medium was exchanged every two days. […]
The optical signal changes of neurons expressing neurotransmitter sensors were detected by perfusion with a neurotransmitter solution.

[4] = tested on: human ADRA2A receptor
Procedure: The perfusion system was set on a microscope, and including a solution-introduced system, an imaging cell, and a suction pump. During the perfusion process, the imaging cell was placed above the objective lens of the inverted microscope, and the slide with cultured cells was placed in the cell. The perfusion experiments of different drugs were performed by controlling the switches of the different pipes of the solution-introduced system. The perfusion speed was set to one drop or so per second. In order to ensure the stability of the focal plane, the liquid level was kept constant at all times, and the flow rate of each solution was adjusted accordingly. The aspiration speed was adjusted to maintain the liquid level in the cell over the slide.
The region of interest (ROI) and background area were selected manually prior to the perfusion experiment. The exposure time was set to less than 50 ms and the acquisition frequency was 5 seconds. The solution used for the perfusion was a physiological solution 4k (pH 7.3-7.4), which was used to formulate the drug to the desired concentration. The running time of the program was set to no more than 5 min. After using 4k to balance and stabilize the cells for about 60-90 s, the cells were perfused with drug for 60 s, and then washed with 4k. The excitation light for green fluorescent protein was 488 nm, and for red fluorescent protein was 568 nm. The laser intensity was adjusted according to the working state of the laser and the expression level of the cells.
After the end of the program, the time-fluorescence intensity data sheet was exported. The background was subtracted from the ROI to get the corresponding fluorescence value Ft, and the average value of the fluorescence value before adding the drug was used as the starting fluorescence F0 to calculate
The detection of the response of the GRAB sensor to the ligand (ΔF/F0) was performed by drug perfusion. The cells were maintained in a standard physiological solution, and the formula thereof is: […]
Fluorescence imaging data was processed using ImageJ software. For the fluorescence performance of GRAB sensors in HEK293T cells and neurons, the entire cell body was selected as the data processing region. The change in the fluorescence signal was usually indicated by its relative intensity change. The background area without the expression of the sensor was first subtracted from the fluorescence signal, so as to obtain the true expression intensity of the fluorescent protein.

effect of blocker on NE reaction [1]: can inhibit
effect of blocker on photolysis-induced fluorescence change [2]: inhibited
effect of blocker on ligand-induced optical signal changes [3]: can inhibit
effect of blocker on NE concentration-dependent changes ([4]; GRAB-NE2.0, 10 nM to 100 μM NE, 1 μM Yohimbine): completely inhibited
effect of blocker on ligand-induced NE sensor signal changes ([4]; GRAB-NE2.0, Yohimbine 2 μM): can inhibit
effect of blocker on NE-induced fluorescence signal ([4]; GRAB-NE2.1, Yohimbine 2 μM): can inhibit
Compound: COC(=O)[C@@H]1[C@H]2C[C@H]3c4[nH]c5ccccc5c4CCN3C[C@@H]2CC[C@@H]1O [Yohimbine]
